# Laboratory results as given in patent US20230272357A1, “METHODS OF GENOME EDITING INCLUDING CONTROLLED OPENING OF CHROMATIN” (Wisconsin Alumni Research Foundation, priority 2021, published 2023).
# System: HIST1H2BJ-GFP locus
# Test: CRISPR-Cas9 gene editing efficiency by flow cytometry (GFP- cells)
# Type: cell-based, human
# Protocol: SpyCas9 RNP preparation: RNPs were produced by complexing a two-component gRNA to SpyCas9. In brief, tracr-RNA and crRNA were ordered from IDT, suspended in nuclease-free duplex buffer at 100 μM, and stored in single-use aliquots at −20° C. tracrRNA and crRNA were thawed, and 0.0625 μL of each component was mixed 1:1 by volume and annealed by incubation at room temperature for 5 minutes to form a 50 μM sgRNA solution for each well of a 96 well plate. Recombinant sNLS-SpCas9-sNLS Cas9 (Aldevron, 10 mg/mL) was added to the complexed gRNA at a 1:1 molar ratio (1000 ng/well, Total 0.1 μL) and incubated for 5 minutes at room temperature to form RNP.
# RNP delivery: iPSCs were singularized using Accutase™ and counted using a Countess® II FL Automated Cell Counter (Thermo Fisher Scientific) with 0.4% Trypan Blue viability stain (Thermo Fisher Scientific). iPSCs were then seeded at 15,000 cells/well on 96 well glass bottom plates (Cellvis) in mTeSR1 (WiCell) and 10 μM ROCK inhibitor (Y27632, Selleckchem), two days before lipofection or electroporation. On the following day, iPSCs were treated with TSA (0-200 ng/mL) for 16-24 hours. iPSC lipofections were performed using 0.5 μL Lipofectamine Stem Cell Reagent/well (1000 ng Cas9/well and sgRNA at 1:1 molar ratio). Cells remained undisturbed for 48 hours and were then passaged 1:4 using ReLeSR™ solution followed by daily mTeSR1 media changes for 4 additional days before downstream analysis.
# Flow cytometry and fluorescence activated cell sorting: Flow cytometry was performed on singularized iPSCs using Attune™ Nxt flow cytometer (ThermoFisher Scientific) and analyzed using the FlowJo Software. Ghost Dye™ Red 780, ATTO 550, and GFP fluorescence were detected using 780/60, 585/16, and 530/30 filters in […] positions, respectively. Gates were established by running singularized untransfected iPSCs. The percentage of viable cells was calculated as the ratio of Ghost Dye™ Red 780-cells to the total number of single cells. Transfection efficiency was calculated as the percentage of ATTO 550+ cells to the total number of viable cells on day 2 post-transfection. Gene editing efficiency was calculated as the percentage of GFP-cells to the total number of viable cells on day 6 post-transfection. For the sorting experiments, iPSCs were singularized 6 days post-transfection using Accutase™, washed with PBS+20 μM ROCK inhibitor, centrifuged at 300 g for 5 minutes. Ghost Dye™ Red 780 viability dye (Tonbo Biosciences) was then added at 1:1000 concentration for 20 minutes at room temperature. Cells were washed again with PBS+20 μM ROCK inhibitor, spun down at 300 g for 5 minutes, and resuspended in 300 μL of FACS buffer (PBS+2% BSA+20 μM ROCK inhibitor). GFP-cells were then sorted into tubes containing mTeSR1+20 μM ROCK inhibitor, and seeded onto Matrigel®-coated 6 well polystyrene plates at 100 cells/well to obtain single-cell iPSC clones.
# A simple, yet robust, workflow has been developed to introduce mutations in iPSCs without extensive use of deep sequencing (FIG. 1A). A mono-allelic mEGFP tagged HIST1H2BJWTC-11 human iPSC line (tag at C-terminus) was used as it provides two-fold advantages. […] Second, these iPSCs enable in situ live imaging of their cell nuclei to monitor chromatin changes during the process of CRISPR-Cas9 gene editing. An Alt-R® CRISPR-Cas9 2-part single guide RNA (sgRNA) system (IDT) was employed, which consists of 1) crRNA sequence to target the mEGFP locus in iPSCs (FIG. 1B), and 2) ATTO™ 550 fluorescent dye labelled tracrRNA that binds to Cas9. A range of TSA concentrations (0-200 ng/mL) were tested on iPSCs to determine the effect of TSA on cell viability. […] TSA concentrations of 0, 3.13, 6.25, and 12.5 ng/mL for further studies. Next, a range of TSA treatment durations (0-24 hours) were assessed and two methods for delivery for the Cas9 RNP complex (lipofection and electroporation) were also assessed to determine the optimal conditions for gene editing. […]
compound,measurement,setting,value
"CC(/C=C/C(=O)NO)=C\[C@@H](C)C(=O)c1ccc(N(C)C)cc1 [TSA, Trichostatin A]",Gene editing efficiency (% GFP- cells/viable cells) upon TSA treatment,"TSA 0-12.5 ng/mL, FIG. 1D",increases
same,Increase in gene editing efficiency (% GFP- cells/viable cells),"TSA 6.25 ng/mL, day 6 after Cas9 RNP delivery",2-3 fold
same,Gene editing efficiency on additional increase of TSA concentration,TSA 12.5 ng/mL vs 6.25 ng/mL,did not increase the editing efficiency further
same,Increase in gene editing efficiency of iPSCs,"chromatin decondensation via TSA, summary statement",2-3 fold
same,Relation between gene editing efficiency (% GFP- cells/viable cells) and dose of TSA,"concentrations up to 6.25 ng/mL, day 6",positive correlation
same,TSA treatment duration yielding the highest gene editing efficiencies,"durations 0-24 hours assessed, data not shown",20 h
